Laboratory results: ChEMBL document CHEMBL3734739, “Synthesis and biological evaluation of novel derivatives of gambogenic acid as anticancer agents” (Medchemcomm, 2015)
Calls of active or inactive are those of the source. The calls are words filed in the database; no cut-off is given here.

What was measured:
U-251 = experiment: Cytotoxicity against human U251 cells by MTT assay; assay type: functional, cell-based
HepG2 [1] = experiment: Cytotoxicity against human HepG2 cells by MTT assay; assay type: functional, cell-based
A549 = experiment: Cytotoxicity against human A549 cells by MTT assay; assay type: functional, cell-based
[2] = Cytotoxicity against human PANC1 cells by MTT assay; assay type: functional, cell-based; conditions: PANC-1
HepG2 [3] = experiment: Induction of apoptosis in human HepG2 cells assessed as ratio of Bcl2/Bax at 0.625 uM after 72 hrs by western blot analysis; assay type: functional
HepG2 [4] = experiment: Cell cycle arrest in human HepG2 cells at 0.3125 to 1.25 uM by propidium iodide staining based flow cytometric analysis; assay type: functional; conditions: TDE = time-dependent effect
HepG2 [5] = experiment: Cell cycle arrest in human HepG2 cells after 24 hrs by propidium iodide staining based flow cytometric analysis; assay type: functional
HepG2 [6] = experiment: Induction of apoptosis in human HepG2 cells assessed as ratio of Bcl2/Bax at 1.25 uM after 72 hrs by western blot analysis; assay type: functional
HepG2 [7] = experiment: Induction of apoptosis in human HepG2 cells assessed as ratio of Bcl2/Bax at 0.3125 uM after 72 hrs by western blot analysis; assay type: functional
HepG2 [8] = experiment: Induction of apoptosis in human HepG2 cells at […] to 1.25 uM after 48 hrs by annexin V/propidium iodide staining-based flow cytometric analysis relative to control; assay type: functional, cell-based
HepG2 [9] = experiment: Cell cycle arrest in human HepG2 cells assessed as accumulation at S phase at 0.3125 to 1.25 uM by propidium iodide staining based flow cytometric analysis; assay type: functional

SMILES	IC50 (U-251) [µM]	IC50 (HepG2 [1]) [µM]	IC50 (A549) [µM]	IC50 [2] [µM]	Ratio (HepG2 [3])	Activity (HepG2 [4])	Activity (HepG2 [5])	Ratio (HepG2 [6])	Activity (HepG2 [1])	Ratio (HepG2 [7])	Activity (HepG2 [8])	Activity (HepG2 [9])
CCN(CC)CCCOC(=O)/C(C)=C\C[C@@]12OC(C)(C)[C@H]3C[C@@H](C=C4C(=O)c5c(O)c(C/C=C(\C)CCC=C(C)C)c(O)c(CC=C(C)C)c5O[C@]431)C2=O	2.05	2.64	2.94	2.85	–	–	–	–	–	–	–	–
CC(C)=CCC/C(C)=C/Cc1c(O)c(CC=C(C)C)c2c(c1O)C(=O)C1=C[C@H]3C[C@H]4C(C)(C)O[C@](C/C=C(/C)C(=O)OCCN5CCOCC5)(C3=O)[C@]14O2	4.93	6.36	4.27	1.89	–	–	–	–	–	–	–	–
CC(C)=CCC/C(C)=C/Cc1c(O)c(CC=C(C)C)c2c(c1O)C(=O)C1=C[C@@H]3C[C@H]4C(C)(C)O[C@@](C/C=C(/C)C(=O)OCCCCN5CCN(CCO)CC5)(C3=O)[C@@]14O2	1.46	0.57	9.53	0.79	–	–	–	–	–	–	–	–
CC(C)=CCC/C(C)=C/Cc1c(O)c(CC=C(C)C)c2c(c1O)C(=O)C1=C[C@@H]3C[C@@H]4C(C)(C)O[C@@](C/C=C(/C)C(=O)OCCCCN5CCOCC5)(C3=O)[C@@]14O2	21.6	14.3	3.17	18.6	–	–	–	–	–	–	–	–
CC(C)=CCC/C(C)=C/Cc1c(O)c(CC=C(C)C)c2c(c1O)C(=O)C1=C[C@H]3C[C@H]4C(C)(C)O[C@](C/C=C(/C)C(=O)OCCCN5CCOCC5)(C3=O)[C@]14O2	3.31	5.79	1.3	2.36	–	–	–	–	–	–	–	–
CC(C)=CCC/C(C)=C/Cc1c(O)c(CC=C(C)C)c2c(c1O)C(=O)C1=C[C@@H]3C[C@@H]4C(C)(C)O[C@@](C/C=C(/C)C(=O)OCCCCN5CCN(C)CC5)(C3=O)[C@@]14O2	17.5	10.8	3.23	7.57	–	–	–	–	–	–	–	–
CC(C)=CCC/C(C)=C/Cc1c(O)c(CC=C(C)C)c2c(c1O)C(=O)C1=C[C@H]3C[C@H]4C(C)(C)O[C@](C/C=C(/C)C(=O)OCCCN5CCN(CCO)CC5)(C3=O)[C@]14O2	1.18	2.75	1.51	2.52	–	–	–	–	–	–	–	–
CC(C)=CCC/C(C)=C/Cc1c(O)c(CC=C(C)C)c2c(c1O)C(=O)C1=C[C@@H]3C[C@@H]4C(C)(C)O[C@@](C/C=C(/C)C(=O)OCCN5CCN(C)CC5)(C3=O)[C@@]14O2	3.45	2.83	1.61	2.61	–	–	–	–	–	–	–	–
CC(C)=CCC/C(C)=C/Cc1c(O)c(CC=C(C)C)c2c(c1O)C(=O)C1=C[C@@H]3C[C@@H]4C(C)(C)O[C@@](C/C=C(/C)C(=O)OCCCN5CCN(C)CC5)(C3=O)[C@@]14O2	1.13	0.98	1.65	0.45	0.478	tde	Dose-dependent effect	0.251	Dose-dependent effect	0.598	Active	Active
CC(C)=CCC/C(C)=C/Cc1c(O)c(CC=C(C)C)c2c(c1O)C(=O)C1=C[C@@H]3C[C@H]4C(C)(C)O[C@@](C/C=C(/C)C(=O)OCCN5CCN(CCO)CC5)(C3=O)[C@@]14O2	3.82	3.87	2.44	2.51	–	–	–	–	–	–	–	–
CC(C)=CCC/C(C)=C/Cc1c(O)c(CC=C(C)C)c2c(c1O)C(=O)C1=C[C@H]3C[C@H]4C(C)(C)O[C@](C/C=C(/C)C(=O)OCCCN5CCCCC5)(C3=O)[C@]14O2	8.87	3.59	2.54	4.66	–	–	–	–	–	–	–	–
CC(C)=CCC/C(C)=C/Cc1c(O)c(CC=C(C)C)c2c(c1O)C(=O)C1=C[C@@H]3C[C@@H]4C(C)(C)O[C@@](C/C=C(/C)C(=O)OCCCCN5CCCCC5)(C3=O)[C@@]14O2	2.78	3.92	3.43	4.43	–	–	–	–	–	–	–	–
CC(C)=CCC/C(C)=C/Cc1c(O)c(CC=C(C)C)c2c(c1O)C(=O)C1=C[C@H]3C[C@H]4C(C)(C)O[C@](C/C=C(/C)C(=O)OCCN5CCCCC5)(C3=O)[C@]14O2	4.93	0.97	1.55	1.89	–	–	–	–	–	–	–	–
CCN(CC)CCOC(=O)/C(C)=C\C[C@@]12OC(C)(C)[C@H]3C[C@@H](C=C4C(=O)c5c(O)c(C/C=C(\C)CCC=C(C)C)c(O)c(CC=C(C)C)c5O[C@]431)C2=O	2.65	1.95	1.41	2.86	–	–	–	–	–	–	–	–
CC(C)=CCC/C(C)=C/Cc1c(O)c(CC=C(C)C)c2c(c1O)C(=O)C1=C[C@@H]3C[C@H]4C(C)(C)O[C@@](C/C=C(/C)C(=O)O)(C3=O)[C@@]14O2 [GAMBOGENIC ACID]	3.22	3.23	3.49	4.16	–	–	–	–	–	–	–	–
CCN(CC)CCCCOC(=O)/C(C)=C\C[C@]12OC(C)(C)[C@@H]3C[C@H](C=C4C(=O)c5c(O)c(C/C=C(\C)CCC=C(C)C)c(O)c(CC=C(C)C)c5O[C@@]431)C2=O	4.62	2.41	3.18	1.84	–	–	–	–	–	–	–	–
